Measured values from US20260159539.
Like-named read-outs stand apart in the source and are kept apart here.

`CCn1c(-c2cc(N3CCN(C4CC4)CC3)cnc2[C@H](C)OC)c(CC(C)(C)CO)c2cc(-c3cc4cc(c3)C[C@@H](C(=O)OC)NC(=O)[C@H](C(C)C)N(C)C(=O)[C@H]3CCCN(C(C)=O)N3CC4)ccc21` gave a ring closure, isolated yield (from CCn1c(-c2cc(N3CCN(C4CC4)CC3)cnc2[C@H](C)OC)c(CC(C)(C)CO)c2cc(-c3cc(CCN4[C@@H](C(=O)O)CCCN4C(C)=O)cc(C[C@H](NC(=O)[C@@H](NC)C(C)C)C(=O)OC)c3)ccc21, amide bond, 14-membered ring, COMU/DIPEA, DMF, 54.0 mM, 25.0 °C, 1.0 h, 2 steps) of 42%.

With `COC(=O)[C@@H]1Cc2cc(Cl)cc(c2)CCN2[C@H](CC[C@H]2C(=O)N(C)C)C(=O)N(C)[C@@H](C(C)C)C(=O)N1` the ring closure, isolated yield (from COC(=O)[C@@H](N)Cc1cc(Br)cc(CCN2[C@@H](C(=O)N(C)[C@H](C(=O)O)C(C)C)CC[C@H]2C(=O)N(C)C)c1, amide bond, 14-membered ring, HATU/DIEA, DMF, 17.1 mM, 25.0 °C, 1.0 h, 2 steps) was 44%.

Compound `CCOC(=O)[C@@H]1Cc2nc(Br)sc2C=C[C@@H]2[C@H](CCN2C(=O)OC(C)(C)C)C(=O)N(C)[C@@H](C(C)C)C(=O)N1` has a ring closure, isolated yield (from C=Cc1sc(Br)nc1C[C@H](NC(=O)[C@H](C(C)C)N(C)C(=O)[C@H]1CCN(C(=O)OC(C)(C)C)[C@@H]1C=C)C(=O)OCC, rcm bond, 13-membered ring, Grubbs G2/Ti(OiPr)4, DCM, 28.3 mM, 45.0 °C, 16.0 h) of 20%.

Compound `CCn1c(-c2cc(N3CCN(C(=O)OCc4ccccc4)CC3)cnc2[C@H](C)OC)c2c3cc(ccc31)-c1cc(cc(O[Si](C(C)C)(C(C)C)C(C)C)c1)C[C@H](NC(=O)OC(C)(C)C)C(=O)N1CCC[C@H](N1)C(=O)OCC(C)(C)C2` has a ring closure, isolated yield (from CCn1c(-c2cc(N3CCN(C(=O)OCc4ccccc4)CC3)cnc2[C@H](C)OC)c(CC(C)(C)CO)c2cc(-c3cc(C[C@H](NC(=O)OC(C)(C)C)C(=O)N4CCC[C@@H](C(=O)O)N4)cc(O[Si](C(C)C)(C(C)C)C(C)C)c3)ccc21, ester bond, 18-membered ring, EDCI/HOBt/DIEA, DCM, 9.3 mM, 25.0 °C, 16.0 h) of 63%.

`COC(=O)[C@@H]1Cc2cc(Br)cc(c2)CC[C@@H]2[C@H](CCN2C(=O)OC(C)(C)C)C(=O)N(C)[C@@H](C(C)C)C(=O)N1` showed a ring closure, isolated yield (from COC(=O)[C@@H](N)Cc1cc(Br)cc(CC[C@@H]2[C@@H](C(=O)N(C)[C@H](C(=O)O)C(C)C)CCN2C(=O)OC(C)(C)C)c1, amide bond, 14-membered ring, HATU/DIEA, DMF, 16.0 mM, 25.0 °C, 1.0 h, 2 steps) of 34%.

Work on `CCn1c(-c2cc(Oc3cccnc3)cnc2[C@H](C)OC)c2c3cc(ccc31)-c1cc(cc(O[Si](C(C)C)(C(C)C)C(C)C)c1)C[C@H](NC(=O)OC(C)(C)C)C(=O)N1CCC[C@H](N1)C(=O)OCC(C)(C)C2` yielded a ring closure, isolated yield (from CCn1c(-c2cc(Oc3cccnc3)cnc2[C@H](C)OC)c(CC(C)(C)CO)c2cc(-c3cc(C[C@H](NC(=O)OC(C)(C)C)C(=O)N4CCC[C@@H](C(=O)O)N4)cc(O[Si](C(C)C)(C(C)C)C(C)C)c3)ccc21, ester bond, 18-membered ring, EDCI/HOBt/DIPEA, DCM, 9.9 mM, 25.0 °C, 12.0 h, 4 steps) of 67%.

`CO[C@@H](C)c1ncc(C2CCN(C(=O)OCc3ccccc3)CC2)cc1-c1c2c3cc(ccc3n1CC(F)(F)F)-c1cc(cc(O[Si](C(C)C)(C(C)C)C(C)C)c1)C[C@H](NC(=O)OC(C)(C)C)C(=O)N1CCC[C@H](N1)C(=O)OCC(C)(C)C2` showed a ring closure, isolated yield (from CO[C@@H](C)c1ncc(C2CCN(C(=O)OCc3ccccc3)CC2)cc1-c1c(CC(C)(C)CO)c2cc(-c3cc(C[C@H](NC(=O)OC(C)(C)C)C(=O)N4CCC[C@@H](C(=O)O)N4)cc(O[Si](C(C)C)(C(C)C)C(C)C)c3)ccc2n1CC(F)(F)F, ester bond, 18-membered ring, EDCI/HOBt/DIEA, DCM, 8.4 mM, 25.0 °C, 16.0 h, 3 steps) of 42%.

“tert-butyl (3aS,6S,9S,15S,32aS)-6-isopropyl-21-(2-((S)-1-methoxyethyl)-5-(4-(oxetan-3-yl)piperazin-1-yl)pyridin-3-yl)-5,19,19-trimethyl-4,7,10,16-tetraoxo-22-(2,2,2-trifluoroethyl)-2,3,3a,4,5,6,7,8,9,10,13,14,15,16,18,19,20,22,32,32a-icosahydro-1H,12H-11,15-epimino-23,25-etheno-9,28-methano-26,30-(metheno)dipyrrolo[2,3-c:3′,4′-v][1,18]dioxa[6,9,12]triazacyclotriacontine-1-carboxylate” showed a ring closure, isolated yield (ether bond, 14-membered ring) of 76%.

Work on `CCn1c(-c2cc(N3CCN(C(=O)OCc4ccccc4)CC3)cnc2[C@H](C)OC)c2c3cc(ccc31)-c1cc(cc(O[Si](C(C)C)(C(C)C)C(C)C)c1)C[C@H](NC(=O)OC(C)(C)C)C(=O)N1CCC[C@H](N1)C(=O)OCC(F)(F)C2` yielded a ring closure, isolated yield (from CCn1c(-c2cc(N3CCN(C(=O)OCc4ccccc4)CC3)cnc2[C@H](C)OC)c(CC(F)(F)CO)c2cc(-c3cc(C[C@H](NC(=O)OC(C)(C)C)C(=O)N4CCC[C@@H](C(=O)O)N4)cc(O[Si](C(C)C)(C(C)C)C(C)C)c3)ccc21, ester bond, 18-membered ring, EDCI/HOBt/DIEA, DCM, 32.0 mM, 25.0 °C, 16.0 h, 2 steps) of 75%.

With `CCOC(=O)[C@@H]1Cc2nc(Br)nn2/C=C/[C@@H]2[C@H](CCN2C(=O)OC(C)(C)C)C(=O)N(C)[C@@H](C(C)C)C(=O)N1` the ring closure, isolated yield (from C=C[C@@H]1[C@@H](C(=O)N(C)[C@H](C(=O)N[C@@H](Cc2nc(Br)nn2C=C)C(=O)OCC)C(C)C)CCN1C(=O)OC(C)(C)C, rcm bond, 13-membered ring, Grubbs G2/Ti(OiPr)4, DCM, 15.3 mM, 45.0 °C, 12.0 h) was 27%.

In the case of `CCn1c(-c2cc(OCc3ccccc3)cnc2[C@H](C)OC)c2c3cc(ccc31)-c1cc(cc(O[Si](C(C)C)(C(C)C)C(C)C)c1)C[C@H](NC(=O)OC(C)(C)C)C(=O)N1CCC[C@H](N1)C(=O)OCC(C)(C)C2`, the ring closure, isolated yield (from CCn1c(-c2cc(OCc3ccccc3)cnc2[C@H](C)OC)c(CC(C)(C)CO)c2cc(-c3cc(C[C@H](NC(=O)OC(C)(C)C)C(=O)N4CCC[C@@H](C(=O)O)N4)cc(O[Si](C(C)C)(C(C)C)C(C)C)c3)ccc21, ester bond, 18-membered ring, EDCI/HOBt/DIPEA, DCM, 9.8 mM, 25.0 °C, 16.0 h, 4 steps) is reported as 67%.

With `COC(=O)[C@@H]1Cc2cc(I)cc(c2)OC[C@@H]2[C@H](CCN2C(=O)OC(C)(C)C)C(=O)N(C)[C@@H](C(C)C)C(=O)N1` the ring closure, isolated yield (from COC(=O)[C@H](Cc1cc(O)cc(I)c1)NC(=O)[C@H](C(C)C)N(C)C(=O)[C@H]1CCN(C(=O)OC(C)(C)C)[C@@H]1COS(=O)(=O)c1ccc(C)cc1, ether bond, 14-membered ring, K2CO3/KI, DMF, 12.2 mM, 80.0 °C, 2.0 h) was 66%.

Work on `CCn1c(-c2cc(N3CCN(C(=O)OCc4ccccc4)CC3)cnc2[C@H](C)OC)c2c3nc(ccc31)-c1cc(cc(O[Si](C(C)C)(C(C)C)C(C)C)c1)C[C@H](NC(=O)OC(C)(C)C)C(=O)N1CCC[C@H](N1)C(=O)OCC(C)(C)C2` yielded a ring closure, isolated yield (from CCn1c(-c2cc(N3CCN(C(=O)OCc4ccccc4)CC3)cnc2[C@H](C)OC)c(CC(C)(C)CO)c2nc(-c3cc(C[C@H](NC(=O)OC(C)(C)C)C(=O)N4CCC[C@@H](C(=O)O)N4)cc(O[Si](C(C)C)(C(C)C)C(C)C)c3)ccc21, ester bond, 18-membered ring, EDCI/HOBt/DIEA, DCM, 32.0 mM, 25.0 °C, 16.0 h, 2 steps) of 42%.

For `CCc1c(-c2cc(N3CCN(C(=O)OCc4ccccc4)CC3)cnc2[C@H](C)OC)n2c3cc(ccc13)-c1cc(cc(O[Si](C(C)C)(C(C)C)C(C)C)c1)C[C@H](NC(=O)OC(C)(C)C)C(=O)N1CCC[C@H](N1)C(=O)OCC(C)(C)C2`, the ring closure, isolated yield (from CCc1c(-c2cc(N3CCN(C(=O)OCc4ccccc4)CC3)cnc2[C@H](C)OC)n(CC(C)(C)CO)c2cc(-c3cc(C[C@H](NC(=O)OC(C)(C)C)C(=O)N4CCC[C@@H](C(=O)O)N4)cc(O[Si](C(C)C)(C(C)C)C(C)C)c3)ccc12, ester bond, 18-membered ring, EDCI/HOBt/DIEA, DCM, 8.8 mM, 25.0 °C, 16.0 h, 2 steps) was 48%.
